Observed efficacy data for 2 compounds are collected here from patent US20120322654A1, “SYNERGISTIC FUNGICIDAL MIXTURES” (BASF SE, priority 2010, published 2012).

This assay relates to Septoria tritici. In words: Microtiter plate test, activity against Septoria tritici (leaf blotch on wheat). It counts as cell-based. The conditions noted are these: MTP, absorption at 405 nm 7 days after inoculation, 18° C. The procedure:
The active compounds were formulated separately as a stock solution having a concentration of 10000 ppm in dimethyl sulfoxide.
Activity Against Septoria tritici, the Causal Agent of Leaf Blotch on Wheat
The stock solutions were mixed according to the ratio, pipetted onto a micro titer plate (MTP) and diluted with water to the stated concentrations. A spore suspension of Septoria tritici in an aqueous biomalt solution was then added. The plates were placed in a water vapor-saturated chamber at a temperature of 18° C. Using an absorption photometer, the MTPs were measured at 405 nm 7 days after the inoculation.
The measured parameters were compared to the growth of the active compound-free control variant (100%) and the fungus-free and active compound-free blank value to determine the relative growth in % of the pathogens in the respective active compounds.
The expected efficacies of active compound combinations were determined using Colby's formula (Colby, S. R., Calculating synergistic and antagonistic responses of herbicide combinations, Weeds, 15, pp. 20-22, 1967) and compared with the observed efficacies. […]

As for `O=C(Nc1ccccc1-c1ccc(Cl)cc1)c1cccnc1Cl` [Boscalid, boscalid], the Observed efficacy (0.25 ppm) is listed as 34%.

Turning to `CC1(C)C(C=C(Cl)Cl)C1C(=O)OC(C#N)c1cccc(Oc2ccccc2)c1` (stereo not drawn) [alpha-Cypermethrin, alpha-cypermethrin], the Observed efficacy (1 ppm) turned out to be 2%.
